Tested on: P12-Ichikawa
Experiment: cell viability relative to DMSO control; higher = less cytotoxic
Details: 48 h
Procedure, shortened: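 Viability is a per-plate percentage relative to DMSO wells, with cell-free wells as background. CellTiter-Glo One luminescence was read after 48 h at 37°C on 1536-well plates (5 μl) of NOMO1 or SEM (500 cells/well) or P12-Ichikawa (1000 cells/well) leukemia cells. The cells had been adapted for at least four passages in each medium and pin-dosed with library compounds in DMSO from 47 μM to 0.79 nM in 11 threefold steps.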

[1] = HPLM + 10% dialyzed FBS, 0.000781 µM
[2] = HPLM + 10% dialyzed FBS, 0.00234 µM
[3] = HPLM + 10% dialyzed FBS, 0.00702 µM
[4] = HPLM + 10% dialyzed FBS, 0.0211 µM
[5] = HPLM + 10% dialyzed FBS, 0.0632 µM
[6] = HPLM + 10% dialyzed FBS, 0.19 µM
[7] = HPLM + 10% dialyzed FBS, 0.569 µM
[8] = HPLM + 10% dialyzed FBS, 1.71 µM
[9] = HPLM + 10% dialyzed FBS, 5.12 µM
[10] = HPLM + 10% dialyzed FBS, 15.4 µM
[11] = HPLM + 10% dialyzed FBS, 46.1 µM
[12] = RPMI 5 mM glucose + 10% FBS, 0.000781 µM
[13] = RPMI 5 mM glucose + 10% FBS, 0.00234 µM
[14] = RPMI 5 mM glucose + 10% FBS, 0.00702 µM
[15] = RPMI 5 mM glucose + 10% FBS, 0.0211 µM
[16] = RPMI 5 mM glucose + 10% FBS, 0.0632 µM
[17] = RPMI 5 mM glucose + 10% FBS, 0.19 µM
[18] = RPMI 5 mM glucose + 10% FBS, 0.569 µM
[19] = RPMI 5 mM glucose + 10% FBS, 1.71 µM
[20] = RPMI 5 mM glucose + 10% FBS, 5.12 µM
[21] = RPMI 5 mM glucose + 10% FBS, 15.4 µM
[22] = RPMI 5 mM glucose + 10% FBS, 46.1 µM
[23] = RPMI 5 mM glucose + 10% dialyzed FBS, 0.000781 µM
[24] = RPMI 5 mM glucose + 10% dialyzed FBS, 0.00234 µM
[25] = RPMI 5 mM glucose + 10% dialyzed FBS, 0.00702 µM
[26] = RPMI 5 mM glucose + 10% dialyzed FBS, 0.0211 µM
[27] = RPMI 5 mM glucose + 10% dialyzed FBS, 0.0632 µM
[28] = RPMI 5 mM glucose + 10% dialyzed FBS, 0.19 µM
[29] = RPMI 5 mM glucose + 10% dialyzed FBS, 0.569 µM
[30] = RPMI 5 mM glucose + 10% dialyzed FBS, 1.71 µM
[31] = RPMI 5 mM glucose + 10% dialyzed FBS, 5.12 µM
[32] = RPMI 5 mM glucose + 10% dialyzed FBS, 15.4 µM
[33] = RPMI 5 mM glucose + 10% dialyzed FBS, 46.1 µM

Row | SMILES | cell viability [1] | cell viability [2] | cell viability [3] | cell viability [4] | cell viability [5] | cell viability [6] | cell viability [7] | cell viability [8] | cell viability [9] | cell viability [10] | cell viability [11] | cell viability [12] | cell viability [13] | cell viability [14] | cell viability [15] | cell viability [16] | cell viability [17] | cell viability [18] | cell viability [19] | cell viability [20] | cell viability [21] | cell viability [22] | cell viability [23] | cell viability [24] | cell viability [25] | cell viability [26] | cell viability [27] | cell viability [28] | cell viability [29] | cell viability [30] | cell viability [31] | cell viability [32] | cell viability [33]
1 | Cc1nc2ccc(CN(C)c3ccc(C(=O)N[C@@H](CCC(=O)O)C(=O)O)s3)cc2c(=O)[nH]1 | 119% | 119% | 118% | 118% | 120% | 56.7% | 42.2% | 26.5% | 24.9% | 25.9% | 21.4% | 112% | 117% | 126% | 115% | 113% | 97% | 66.2% | 42.6% | 38.2% | 35.1% | 31.7% | 106% | 116% | 105% | 119% | 108% | 88.9% | 60.8% | 32.4% | 28.5% | 27.8% | 26.9%
2 | COCCCC/C(=N\OCCN)c1ccc(C(F)(F)F)cc1 | 98.4% | 87.1% | 91.2% | 91% | 94.9% | 80.8% | 74.4% | 85% | 80.9% | 72.2% | 63.5% | 83.5% | 81.8% | 91.7% | 79.8% | 95.8% | 72% | 62.2% | 83.2% | 80.3% | 67% | 41.9% | 79.8% | 80.7% | 76.9% | 84.6% | 84.4% | 80.3% | 77.9% | 78.8% | 74.5% | 77.2% | 52.7%
3 | Clc1ccc(CCC(Cn2ccnc2)Sc2c(Cl)cccc2Cl)cc1 (configuration not stated) | 92.8% | 92.5% | 96% | 90.2% | 93.9% | 102% | 101% | 94.7% | 91.9% | 91.2% | 91.5% | 90% | 94.6% | 96% | 103% | 99.8% | 94.8% | 87.8% | 96% | 91.1% | 91.9% | 63.2% | 81.1% | 72.8% | 84.4% | 95.1% | 84.6% | 86.4% | 90.1% | 83.7% | 89.1% | 90.1% | 64.7%
4 | NC[C@H](O)c1ccc(O)c(O)c1 | 98.9% | 100% | 99% | 103% | 98.8% | 102% | 97.4% | 92.4% | 92.8% | 92.6% | 83.5% | 101% | 99.5% | 94.1% | 98.9% | 105% | 96.7% | 97.6% | 92.3% | 91.2% | 90.2% | 84.4% | 89.9% | 96% | 99.9% | 88.1% | 96.1% | 97.6% | 86.3% | 93.6% | 92% | 86.5% | 81.5%
5 | CN1CCC(CNc2ccc3ncc(-c4cccc(OC(F)(F)F)c4)n3n2)CC1 | 108% | 110% | 97.3% | 109% | 105% | 103% | 108% | 102% | 97.4% | 92.8% | 5.65% | 100% | 101% | 89.4% | 102% | 100% | 102% | 99.8% | 94.7% | 89.1% | 79.7% | 4.48% | 92.7% | 92.9% | 92.2% | 95.4% | 94.7% | 92.4% | 101% | 92.3% | 85.9% | 84.3% | 4.77%
6 | N#Cc1cc(NC(=O)Nc2nnc(-c3ccncc3)s2)ccc1-c1cn[nH]c1 | 117% | 125% | 122% | 125% | 120% | 116% | 122% | 115% | 113% | 106% | 110% | 120% | 127% | 125% | 126% | 110% | 116% | 119% | 113% | 119% | 112% | 109% | 121% | 126% | 117% | 124% | 126% | 126% | 128% | 124% | 115% | 112% | 105%
7 | CO[C@H]1C[C@@H]2CC[C@@H](C)[C@@](O)(O2)C(=O)C(=O)N2CCCC[C@H]2C(=O)O[C@H]([C@@H](C)C[C@@H]2CC[C@@H](O)[C@H](OC)C2)CC(=O)[C@H](C)/C=C(\C)[C@@H](O)[C@@H](OC)C(=O)[C@H](C)C[C@H](C)/C=C/C=C/C=C/1C | 118% | 127% | 122% | 125% | 124% | 116% | 121% | 124% | 113% | 112% | 91.8% |  |  |  |  |  |  |  |  |  |  |  |  |  |  |  |  |  |  |  |  |  | 
8 | OC1=C(Cl)C=C(N\C2=C(\C(=O)NC2=O)C3=C(C=CC=C3)[N+]([O-])=O)C=C1 | 100% | 100% | 98.9% | 102% | 112% | 97.7% | 103% | 99.5% | 90.1% | 87.4% | 79.5% | 98.6% | 109% | 105% | 110% | 99.4% | 98.9% | 111% | 105% | 104% | 83.9% | 58.1% | 100% | 107% | 112% | 115% | 110% | 109% | 113% | 106% | 109% | 86.7% | 69.5%

Source: the supplement of paper PMC11451515
